The text below walks through data of ChEMBL document CHEMBL1201862, “PubChem BioAssay data set” (2004).

The GI50 is the concentration that inhibits growth by half.

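Test compounds were applied to cells in 96-well plates for 48 hours at 5 doses. Here, GI50 denotes the concentration required for 50% inhibition of growth.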 Calls of active or inactive are those of the source. Cut-off read from the data, not from the text of the source: active = GI50 up to about 1.1 µM and inactive = higher.

Among the test systems are NCI/ADR-RES; HOP-62; EKVX; 786-0; Malme-3M; OVCAR-8; SF-268; UO-31; OVCAR-5; SN12C; MDA-MB-435; HCT-15; CCRF-CEM; COLO 205; OVCAR-3; U-251; A498; HCT-116; IGROV-1; CAKI-1.
Holding throughout (experiment): DTP human tumour cell line panel, 48 h

With `Cc1nc(N)c(N2CCN(CN)CC2)c(O)n1`, the GI50 in the test with NCI/ADR-RES, in the test on HOP-62, in the test on EKVX, in the test with 786-0, in the test on Malme-3M and in the test on OVCAR-8 was > 100 µM (inactive) each time. For the same compound, the GI50 in the test with SF-268 was > 100 µM (inactive); with UO-31 it was > 100 µM (inactive); with OVCAR-5, > 100 µM (inactive); in the test with SN12C it was > 100 µM (inactive); in the test on MDA-MB-435, > 100 µM (inactive); with HCT-15, more than 100 µM. Further, the GI50 with CCRF-CEM, in the test on COLO 205, in the test with OVCAR-3, in the test with U-251, in the test on A498 and in the test on HCT-116 was > 100 µM (inactive) in each case.
Consider `CC1=NN(c2ccc(S(=O)(=O)O)cc2)C2(C1)SCC(=O)N2c1nc2ccccc2s1` (stereo not drawn), for which the GI50 in the test with NCI/ADR-RES, in the test on HOP-62, with EKVX, in the test with 786-0, in the test on Malme-3M and in the test with OVCAR-8 was > 100 µM (inactive) each time. In addition, the GI50 in the test on IGROV-1, in the test on SF-268, in the test on UO-31, in the test with OVCAR-5, in the test on SN12C and in the test on MDA-MB-435 was > 100 µM (inactive) in each case. The 50% growth inhibitory concentration (GI50) in the test with HCT-15 is more than 100 µM; in the test with CAKI-1 it was > 100 µM (inactive); in the test with COLO 205, > 100 µM (inactive); in the test on OVCAR-3, > 100 µM (inactive); in the test on U-251, > 100 µM (inactive); in the test on A498 it was > 100 µM (inactive). Also, the GI50 with HCT-116 is > 100 µM (inactive).
Take `CCOc1cc2c(cc1O)/C(=N\OC)C[C@@H]1[C@@H]2CC[C@]2(C)[C@@H](O)CC[C@@H]12`: the GI50 with NCI/ADR-RES is 0.0319 µM (active); with HOP-62 it was < 0.0461 µM (active); with EKVX, 10.8 µM (inactive); in the test with 786-0 it was < 0.0403 µM (active); in the test with Malme-3M, 0.129 µM (active); in the test on OVCAR-8, 0.217 µM (active). Besides, the GI50 was 0.923 µM (active) in the test on IGROV-1; 0.625 µM (active) in the test with SF-268; 0.875 µM (active) in the test with UO-31; 21.6 µM (inactive) in the test on OVCAR-5; 0.372 µM (active) with SN12C; 0.0282 µM (active) in the test on MDA-MB-435. Moreover, the GI50 is 0.0653 µM in the test on HCT-15; 0.299 µM (active) with CCRF-CEM; 16.3 µM (inactive) with COLO 205; < 0.0205 µM (active) in the test on OVCAR-3; 0.135 µM (active) with U-251; 0.0908 µM (active) with A498. Also, in the test on HCT-116, the GI50 was < 0.0296 µM (active).
As to `CCOC(=O)C1=c2[nH]c3cccc4cccc(c43)n2C(=O)CC1`, the GI50 was > 100 µM (inactive) in the test with NCI/ADR-RES; > 100 µM (inactive) in the test on HOP-62; > 100 µM (inactive) in the test on EKVX; 34.4 µM (inactive) in the test with 786-0; 56.5 µM (inactive) with OVCAR-8; 49.4 µM (inactive) in the test with IGROV-1. Besides, the GI50 was 38.6 µM (inactive) with UO-31; > 100 µM (inactive) with OVCAR-5; > 100 µM (inactive) with SN12C; > 100 µM (inactive) with MDA-MB-435; 39.3 µM in the test on HCT-15; > 100 µM (inactive) in the test with CAKI-1. Besides, the GI50 with CCRF-CEM is 24.3 µM (inactive); in the test with COLO 205, 43.8 µM (inactive); in the test on OVCAR-3 it was > 100 µM (inactive); with U-251 it was > 100 µM (inactive); in the test on A498, > 100 µM (inactive); with HCT-116, 45.6 µM (inactive).
In the case of `C(=N\Nc1nnc2c(n1)[nH]c1ccccc12)/c1cccnc1`, the GI50 was > 100 µM (inactive) in the test with NCI/ADR-RES; > 100 µM (inactive) with HOP-62; > 100 µM (inactive) in the test with EKVX; > 100 µM (inactive) in the test on 786-0; 57.8 µM (inactive) in the test on Malme-3M; > 100 µM (inactive) with OVCAR-8. Besides, the GI50 in the test with IGROV-1, in the test on SF-268, in the test with UO-31, in the test on OVCAR-5, with SN12C and with MDA-MB-435 was > 100 µM (inactive) each time. Besides, the 50% growth inhibitory concentration (GI50) in the test with HCT-15 is more than 100 µM; with CAKI-1, > 100 µM (inactive); in the test with COLO 205 it was > 100 µM (inactive); with OVCAR-3, > 100 µM (inactive); with U-251, > 100 µM (inactive); in the test with A498 it was > 100 µM (inactive). The GI50 with HCT-116 was > 100 µM (inactive).
Regarding `Cc1ccc(S(=O)(=O)Nc2nnc(S(N)(=O)=O)s2)cc1`, the GI50 in the test on NCI/ADR-RES, in the test with HOP-62, with EKVX, in the test on 786-0, with Malme-3M and with OVCAR-8 was > 100 µM (inactive) throughout. Also, the GI50 in the test with SF-268 is > 100 µM (inactive); in the test with UO-31 it was > 100 µM (inactive); in the test with OVCAR-5, > 100 µM (inactive); in the test with SN12C, > 100 µM (inactive); in the test on MDA-MB-435, > 100 µM (inactive); in the test with HCT-15, more than 100 µM. For the same compound, the GI50 with CAKI-1, in the test with COLO 205, with OVCAR-3, with U-251, in the test on A498 and in the test on HCT-116 was > 100 µM (inactive) each time.
`CC(=O)c1ccc(NCc2cc(O)ccc2O)cc1`: the GI50 in the test with NCI/ADR-RES was 36.5 µM (inactive); in the test on HOP-62, 20.6 µM (inactive); in the test on EKVX, 30 µM (inactive); in the test on 786-0, 13.3 µM (inactive); in the test on OVCAR-8 it was 23.8 µM (inactive); in the test with IGROV-1, > 100 µM (inactive). In addition, the GI50 is 11.4 µM (inactive) with UO-31; 21.3 µM (inactive) in the test on OVCAR-5; 25.5 µM (inactive) in the test on SN12C; 21.1 µM (inactive) in the test on MDA-MB-435; 24.9 µM with HCT-15; 17.9 µM (inactive) in the test with CAKI-1. Also, the GI50 in the test on CCRF-CEM was 8.55 µM (inactive); in the test on COLO 205, 11.8 µM (inactive); in the test with OVCAR-3 it was 7.06 µM (inactive); in the test with U-251 it was 21.8 µM (inactive); in the test on A498, 36.1 µM (inactive); with HCT-116 it was 17.4 µM (inactive).
With `O=C(Cn1c(C(=O)/C=C/c2ccc(Cl)cc2)nc2ccccc21)c1ccc(Cl)cc1`, the GI50 with NCI/ADR-RES was 20.5 µM (inactive); in the test with HOP-62 it was 16.4 µM (inactive); in the test on EKVX it was 26.5 µM (inactive); in the test with 786-0 it was 20.6 µM (inactive); in the test on Malme-3M, 20.9 µM (inactive); in the test with IGROV-1, 16.7 µM (inactive). Besides, the GI50 in the test with SF-268 was 23.3 µM (inactive); with UO-31, 19.8 µM (inactive); in the test on OVCAR-5 it was 26.8 µM (inactive); with SN12C, 14.1 µM (inactive); with MDA-MB-435, 17.1 µM (inactive); in the test on HCT-15 it was 15.3 µM. In addition, the GI50 with CCRF-CEM was 2.7 µM (inactive); in the test with COLO 205, 16.5 µM (inactive); in the test on OVCAR-3 it was 8.87 µM (inactive); in the test with U-251 it was 11.5 µM (inactive); with A498, 32.3 µM (inactive); in the test with HCT-116, 10.9 µM (inactive).
With `C#Cc1cc(-c2nc3ccccc3s2)ccc1N`, the GI50 was 27.7 µM (inactive) in the test on NCI/ADR-RES; 37.3 µM (inactive) in the test on HOP-62; 19.1 µM (inactive) in the test on EKVX; 34.4 µM (inactive) with 786-0; 24.4 µM (inactive) with Malme-3M; 29.2 µM (inactive) in the test on OVCAR-8. The GI50 in the test with IGROV-1 is 0.615 µM (active); with SF-268 it was 25.8 µM (inactive); with UO-31, 14.2 µM (inactive); with OVCAR-5, 32 µM (inactive); in the test on SN12C it was 22 µM (inactive); in the test with MDA-MB-435, 19.5 µM (inactive). Moreover, the GI50 in the test with HCT-15 was 17.5 µM; in the test with CAKI-1 it was 20.5 µM (inactive); with CCRF-CEM, 23.3 µM (inactive); with COLO 205, 17.5 µM (inactive); in the test on OVCAR-3, 16.8 µM (inactive); in the test on U-251, 20.6 µM (inactive). The GI50 in the test on HCT-116 was 16.6 µM (inactive).
As for `CC1Cc2c(cc(N)nc2Br)NC1=O` (stereo not drawn), the GI50 with NCI/ADR-RES was > 100 µM (inactive); with HOP-62 it was > 100 µM (inactive); with EKVX, 11 µM (inactive); in the test with 786-0 it was > 100 µM (inactive); with Malme-3M, > 100 µM (inactive); in the test with OVCAR-8 it was > 100 µM (inactive). Also, the GI50 in the test with IGROV-1 is > 100 µM (inactive); in the test on SF-268, > 100 µM (inactive); in the test on UO-31 it was > 100 µM (inactive); with OVCAR-5 it was > 100 µM (inactive); in the test on SN12C, > 100 µM (inactive); in the test with MDA-MB-435, 62.4 µM (inactive). The concentration for 50% growth inhibition (GI50) in the test on HCT-15 was more than 100 µM; with CAKI-1, > 100 µM (inactive); in the test with CCRF-CEM it was > 100 µM (inactive); with COLO 205 it was > 100 µM (inactive); with OVCAR-3, > 100 µM (inactive); with U-251, > 100 µM (inactive). Further, the GI50 with HCT-116 is 64.6 µM (inactive).
Consider `COC(=O)C1C(O)C(C(=O)OC)C(C)N(C)C1C` (stereo not drawn), for which the GI50 with NCI/ADR-RES, in the test on HOP-62, with EKVX, in the test on 786-0, in the test with OVCAR-8 and in the test on IGROV-1 was > 100 µM (inactive) in each case. The GI50 in the test with UO-31 was > 100 µM (inactive); in the test with OVCAR-5 it was > 100 µM (inactive); in the test on SN12C, > 100 µM (inactive); in the test on MDA-MB-435, > 100 µM (inactive); in the test with HCT-15 it was more than 100 µM; in the test with CAKI-1 it was > 100 µM (inactive). For the same compound, the GI50 with CCRF-CEM, in the test with COLO 205, in the test with OVCAR-3, in the test with U-251, in the test on A498 and in the test with HCT-116 was > 100 µM (inactive) throughout.
